SMILES strings stand for the structures. Calls of active or inactive are those of the source.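 How the source made its calls: active means caspase luminescence falls with dose and the half-maximal concentration AC50 from the fitted curve is at or below a set limit; inconclusive means flat fit at 30 to 70% signal loss, or invalid fit; inactive means AC50 above the limit, or signal rises instead.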

The subject of this assay is INS-1E cytokine-induced caspase-3/7, Caspase-Glo luminescence, 48 h. Kind of assay: suppression of cytokine-driven beta-cell apoptosis – INS-1E rat cells, luminescence, orthogonal assay for beta-cell apoptosis protection project, dose response (AID 463206).
For `COc1ccc(C(=O)NN/C(C)=C/C(=O)C(F)(F)C(F)(F)C(F)(F)F)cc1`, the AC50 is > 26 µM (inactive). In the case of `COc1ccc(-c2cn(-c3ccc(Cl)cc3)c3[n+]2CCCCC3)cc1`, the AC50 is > 26 µM (inactive).

On to `CN(C)c1ccc(NC(=S)NC23CC4CC(CC(C4)C2)C3)cc1`, for which the AC50 was > 26 µM (inactive).

Turning to `Cc1cc2nc(-c3ccc(NC(=O)c4cccnc4)cc3)oc2cc1C`, the AC50 was > 26 µM (inactive). The value for `CCC(Sc1nc(C)cc(C)n1)C(=O)NC1=NN=C(c2ccc(C)cc2)CS1` (stereo not drawn) was > 26 µM (inactive); that for `C#CCOCCOCCOCCNc1nc(N2CCN(C(=O)CCCCCCCCCCNC(=O)[C@H](CCCCN)n3cc(C)nn3)CC2)nc(N2CCN(C(=O)CCCCCCCCCCNC(=O)[C@@H]([C@H](C)CC)n3cc(CCCCCN)nn3)CC2)n1` was > 26 µM (inactive); that for `c1ccc(CN2CCN(Cc3c[nH]c4ccccc34)CC2)cc1` was > 26 µM (inactive). The value for `O=C1C(Cl)=C(NCc2cccnc2)C(=O)c2ccccc21` was > 26 µM (inactive); that for `Cc1sc2cc3c(c(C(=O)c4ccccc4)[n+]2c1C)-c1cccc2cccc-3c12` was > 26 µM (inactive); that for `O=C(Nc1nc2ccc(F)cc2s1)C1CCN(S(=O)(=O)c2cc([N+](=O)[O-])ccc2Cl)CC1` was > 26 µM (inactive). The value for `O=C(Cc1ccccc1)N/N=C/c1ccc([N+](=O)[O-])s1` was > 26 µM (inactive); that for `Cc1sc2ncnc(NC3CCN(Cc4ccccc4)CC3)c2c1C` was > 26 µM (inactive); that for `CC(=O)c1cccc(NS(=O)(=O)c2ccc(N/C=C/C(=O)c3ccc(F)cc3)cc2)c1` was > 26 µM (inactive). With `Clc1ccc2c(N/N=C/c3cccc(Br)c3)ccnc2c1`, the AC50 was > 26 µM (inactive).

`Cc1ccc2c(c1)c(/C=C/c1cc[n+](C)cc1)c(C)n2C`: the AC50 was > 26 µM (inactive). As for `Cc1nc2ccccc2cc1OCc1ccc(F)cc1`, the AC50 is > 26 µM (inactive). Consider `O=[N+]([O-])c1ccc(N2CCN(C(=S)NCc3ccc(Cl)cc3)CC2)cc1`, for which the AC50 is > 26 µM (inactive). To `C=CCSc1nsc(NC(=O)Nc2ccc(F)cc2)n1` belongs > 26 µM (inactive). On to `O=C(NCc1cccnc1)c1ccc([N+](=O)[O-])cc1`, for which the AC50 is > 26 µM (inactive). To `CCn1c(=NC(=O)CCS(=O)(=O)c2ccccc2)sc2cccc(OC)c21` belongs > 12 µM (inactive).

With `CC(=O)SC1CC(=O)N(c2c(C)cccc2C)C1=O` (stereo not drawn), the AC50 was > 26 µM (inactive).

As for `CCOC(=O)N1CCN(C(=O)CSCC(=O)Nc2nc(-c3ccc(-c4ccccc4)cc3)cs2)CC1`, the AC50 was > 26 µM (inactive). To `O=C(N/N=C/c1cc(Br)ccc1O)C(=O)Nc1ccccc1OC(F)(F)C(F)F` belongs > 26 µM (inactive). The value for `CCN1CCN(Cc2ccc(NC(=O)c3ccc(C)c(NC(=O)c4c[nH]c5cc(C(F)(F)F)ccc5c4=O)c3)cc2C(F)(F)F)CC1` was > 26 µM (inactive); that for `O=C(NCc1cccnc1)/C(=C/c1ccc(-c2cccc(Cl)c2)o1)S(=O)(=O)c1ccccc1` was > 26 µM (inactive). With `CCN(CC(=O)Nc1ccc(NC(C)=O)cc1)C(=O)CCCOc1ccc(C(C)(C)C)cc1`, the AC50 was > 26 µM (inactive).

With `O=C(NC1(Cc2ccccc2)CCN(CCCc2ccccc2)C1=O)c1ccccc1` (stereo not drawn), the AC50 was > 26 µM (inactive).

As for `C/C(=N\NC(N)=S)c1ccncc1`, the AC50 was > 26 µM (inactive). Regarding `CCOc1ccc2nc(NC(=O)c3ccccn3)sc2c1`, the AC50 was > 26 µM (inactive). In the case of `CCOC(=O)c1cnc(-n2nc(C)cc2C)nc1NCc1ccccc1`, the AC50 was > 26 µM (inactive). The value for `CCN1CCN(Cc2ccc(NC(=O)c3cc(NC(=O)c4cnn(-c5ccccc5)c4N)cc(OC)c3)cc2C(F)(F)F)CC1` was > 26 µM (inactive); that for `CCOc1ccc(S(=O)(=O)N2CCCCC2)cc1NC(=O)CN1CCCC1c1cccs1` (stereo not drawn) was > 26 µM (inactive). In the case of `O=C(N/N=C/c1cnc(N2CCCCC2)s1)c1ccc(C(F)(F)F)cc1`, the AC50 is > 26 µM (inactive).

Take `O=C(CC1CC2CCC1C2)NCCc1ccc(Cl)cc1` (stereo not drawn): the AC50 is > 26 µM (inactive). Turning to `CC(=O)/C=C1\N(C)c2ccc(C)cc2C1(C)C`, the AC50 is > 26 µM (inactive). As for `COc1cccc(/C=N/NC(=O)c2cc3cc([N+](=O)[O-])ccc3s2)c1O`, the AC50 was > 26 µM (inactive). Turning to `CCCC(=O)NC(c1ccc(OC)c(OC)c1)c1cc(Cl)c2cccnc2c1O` (stereo not drawn), the AC50 is > 26 µM (inactive). With `C=CCn1nc([N+](=O)[O-])nc1Sc1cccc2cccnc12`, the AC50 is > 26 µM (inactive). On to `CN(Cc1ccccc1)C(=O)c1nc2ccccn2c1CN1CCCC1c1nccs1` (stereo not drawn), for which the AC50 was > 26 µM (inactive).

With `COc1ccc(Cn2cc3c(-c4ccc(F)cc4)nnc-3c3cc(OC)c(OC)cc32)cc1`, the AC50 is 12.9 µM. For `O=C(Nc1ccc(OC(F)F)c(Cl)c1)C(c1ccccc1)c1ccccc1`, the AC50 was > 26 µM (inactive). To `O=C(Nc1ccc(Cl)c(Cl)c1)Nc1nnc(CC2=CCCCC2)s1` belongs > 26 µM (inactive). Turning to `CCCCCc1cc(=O)oc2c(C(CCN(CC)CC)c3ccc(OC)cc3)c(OC)cc(OC)c12` (stereo not drawn), the AC50 is 23.2 µM.

Consider `Cc1ccc(Cl)cc1NC1=C/C(=N\S(=O)(=O)c2cccs2)c2ccccc2C1=O`, for which the AC50 was > 26 µM (inactive).

Regarding `COc1cc(CNC(C)c2ccccc2)cc(Br)c1OCc1ccc(F)cc1` (stereo not drawn), the AC50 is > 26 µM (inactive).

As to `CCOC(=O)c1c(C)[nH]c(C(=O)OCC(=O)NC(C)(C)C)c1C`, the AC50 is > 26 µM (inactive). To `Cc1ccc2nc(-c3cccc(-c4cccc(Cl)c4)c3)c(NCc3ccccc3)n2c1` belongs > 26 µM (inactive); to `O=[N+]([O-])c1cc(Cl)cc(/C=N\Nc2ccccn2)c1O`, > 26 µM (inactive); to `O=C(CNC(=O)c1ccccc1)N/N=C/c1cc(Br)ccc1O`, > 26 µM (inactive).

For `COc1ccccc1NC(=O)c1nc(S(=O)(=O)Cc2ccccc2)ncc1Cl`, the AC50 was > 26 µM (inactive).

Take `CCCCCCC[n+]1ccc(-c2cc[n+](CCCCCCC)cc2)cc1`: the AC50 is > 26 µM (inactive).

Turning to `CCC(C)Nc1nc(-c2ccccn2)nc2ccccc12` (stereo not drawn), the AC50 was > 26 µM (inactive). To `Oc1[nH]c(N=C2N=c3ccccc3=N2)c2ccccc12` belongs > 26 µM (inactive); to `COc1ccc(C2=NNC(=Nc3cc(S(=O)(=O)N(C)C)ccc3C)SC2)c(OC)c1`, 24.8 µM. As for `c1ccc(CNc2nc(-c3ccccn3)nc3ccccc23)cc1`, the AC50 is > 26 µM (inactive). To `O=C(NCc1ccccc1)C1=C[C@H](c2csc3ccccc23)C[C@H](OCCCCO)O1` belongs > 26 µM (inactive); to `COc1cc([N+](=O)[O-])cc(/C=N/NC(=O)c2cc(-c3ccccc3)nc3ccccc23)c1O`, > 26 µM (inactive). For `O=C(Nc1cccc(Cl)c1)Nc1nnc(CSCCOc2ccc(Cl)cc2)s1`, the AC50 is > 26 µM (inactive). For `CCOC(=O)N1CCN(c2ncnc3c2[nH]c2ccc(F)cc23)CC1`, the AC50 is > 26 µM (inactive). For the molecule `c1ccc2c3c([nH]c2c1)C1(CCNCC1)NCC3`, the AC50 was > 26 µM (inactive). To `CCOC(=O)N1CCN(S(=O)(=O)c2ccc(C(=O)NNc3nc4cc(C)cc(C)c4s3)cc2)CC1` belongs > 26 µM (inactive). Take `CCc1ccc2c(c1)C1(C(=O)N2)N2CCCC2C(C(=O)c2ccc3ccccc3c2)C12C(=O)Nc1ccccc12` (stereo not drawn): the AC50 was > 26 µM (inactive). Regarding `Cc1nc(Nc2cnc(/C=C/c3cc(C(=O)Nc4cccc(C(F)(F)F)c4)ccc3C)cn2)cc(N2CCNCC2)n1`, the AC50 was > 26 µM (inactive). For `Cc1cccc(CNc2ccc(S(=O)(=O)N3CCCCC3)cc2)c1`, the AC50 was > 26 µM (inactive).

`CCN1CCN(c2c(Cl)cccc2NC(=O)c2ccc([N+](=O)[O-])o2)CC1`: the AC50 is > 26 µM (inactive).

With `CNc1nc2cc([N+](=O)[O-])c([N+](=O)[O-])cc2nc1NC`, the AC50 is > 26 µM (inactive). To `CC(C)(C)C(=O)NC(=S)NNC(=O)c1ccc(-c2ccccc2)cc1` belongs > 26 µM (inactive); to `CCCCCCC(=O)N1C/C=C\C(c2ccc(OC)cc2)N(Cc2ccc(F)cc2)C(=O)[C@H]1Cc1ccccc1` (stereo partly drawn), > 26 µM (inactive). In the case of `O=C(Nc1ccc(C(F)(F)F)cc1)C1CCN(S(=O)(=O)c2ccc(N3CCCC3=O)cc2)CC1`, the AC50 is > 26 µM (inactive). To `COc1cccc(/C=N/Nc2nc(Nc3ccccc3)nc(-n3nc(C)cc3C)n2)c1O` belongs > 26 µM (inactive); to `CCN(CC)S(=O)(=O)c1cccc(NC(=O)Nc2cccc(C(F)(F)F)c2)c1`, > 26 µM (inactive); to `COc1ccc(Br)cc1CN(C)CC(=O)NCc1ccc(F)cc1`, > 26 µM (inactive). In the case of `O=[N+]([O-])c1ccc(-c2nc3ccc([N+](=O)[O-])cc3[nH]2)cc1`, the AC50 was > 26 µM (inactive). To `Nc1ccccc1C#CC(=O)c1ccccc1` belongs > 26 µM (inactive). To `O=C(NCCc1ccccc1)[C@@H]1CC=C[C@@H]2CCN(Cc3ccc(Cl)c(Cl)c3)C(=O)[C@@H]21` belongs > 12 µM (inactive); to `CN(C)c1nc(N/N=C/c2ccccc2O)nc(Nc2ccc(F)cc2)n1`, > 26 µM (inactive).

On to `Oc1c(N=Nc2ccccn2)ccc2ccccc12`, for which the AC50 was > 26 µM (inactive). The value for `CC1CCc2c(sc3nc(C(C)(C)C)nc(N4CCN(C(=O)CCl)CC4)c23)C1` (stereo not drawn) was > 26 µM (inactive). The value for `O=C(N/N=C\c1c(O)ccc2ccccc12)c1ccc(Cn2cccn2)o1` was > 26 µM (inactive); that for `CCC(C)Sc1ccc(-c2nc3ccc(C)cn3c2NCc2ccccc2)cc1OC` (stereo not drawn) was > 26 µM (inactive); that for `c1ccc(-c2nnc3sc(-c4csc5c4CCCC5)nn23)cc1` was > 26 µM (inactive).

With `CC1Cc2ccccc2N1C(=O)CSc1nc2ccccc2o1` (stereo not drawn), the AC50 is > 26 µM (inactive). The value for `Cc1ccc(Nc2cc(C)nn2-c2nc(C)cc(=O)[nH]2)cc1` was > 26 µM (inactive).

Usually AC50 stands for the concentration at which the activity in the assay is half-maximal.

For the origin of these results see PubChem BioAssay AID463206 (Broad Institute, 2010).
